In PubChem BioAssay AID1963838 (Molecular Pharmacology Branch, DTP, NCI, 2024):

System: 855422-203-R-J1-PDC complex spheroid viability
Assay: Anticancer human tumor 855422-203-R-J1-PDC patient-derived bladder carcinoma cell line growth inhibition [POLQ]
Settings: for IC50: curve of first compound; for viability, T/C: stronger effect = lower value
Method in brief: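 PDC + HUVEC + MSC complex spheroids; POLQ inhibitors ± partner drugs; top conc. at/near clinical Cmax, else 10 microM (SN-38 1 microM), half-log dilutions; 37 degrees C, 5% CO2.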

[1] = second compound 0.0316 µM, first compound 0.0316 µM
[2] = second compound 0.0316 µM, first compound 0.1 µM
[3] = second compound 0.0316 µM, first compound 0.316 µM
[4] = second compound 0.0316 µM, first compound 1 µM
[5] = second compound 0.1 µM, first compound 0.0316 µM
[6] = second compound 0.1 µM, first compound 0.1 µM
[7] = second compound 0.1 µM, first compound 0.316 µM
[8] = second compound 0.1 µM, first compound 1 µM
[9] = second compound 0.316 µM, first compound 0.0316 µM
[10] = second compound 0.316 µM, first compound 0.1 µM
[11] = second compound 0.316 µM, first compound 0.316 µM
[12] = second compound 0.316 µM, first compound 1 µM
[13] = second compound 1 µM, first compound 0.0316 µM
[14] = second compound 1 µM, first compound 0.1 µM
[15] = second compound 1 µM, first compound 0.316 µM
[16] = second compound 1 µM, first compound 1 µM
[17] = second compound 3.16 µM, first compound 0.0316 µM
[18] = second compound 3.16 µM, first compound 0.1 µM
[19] = second compound 3.16 µM, first compound 0.316 µM
[20] = second compound 3.16 µM, first compound 1 µM
[21] = second compound 10 µM, first compound 0.0316 µM
[22] = second compound 10 µM, first compound 0.1 µM
[23] = second compound 10 µM, first compound 0.316 µM
[24] = second compound 10 µM, first compound 1 µM
[25] = second compound 0.0316 µM, first compound 3.16 µM
[26] = second compound 0.0316 µM, first compound 10 µM
[27] = second compound 0.1 µM, first compound 3.16 µM
[28] = second compound 0.1 µM, first compound 10 µM
[29] = second compound 0.316 µM, first compound 3.16 µM
[30] = second compound 0.316 µM, first compound 10 µM
[31] = second compound 1 µM, first compound 3.16 µM
[32] = second compound 1 µM, first compound 10 µM
[33] = second compound 3.16 µM, first compound 3.16 µM
[34] = second compound 3.16 µM, first compound 10 µM
[35] = second compound 10 µM, first compound 3.16 µM
[36] = second compound 10 µM, first compound 10 µM
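Further: spheroids exposed to compounds for seven days before readout.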

Work on `COc1cccc(OCCCN)c1-c1cc(Nc2cnc(C#N)cn2)n[nH]1` + Nc1ccc(C#CCN(C(=O)Cc2ncc(C(F)(F)F)cc2C(F)(F)F)c2ccc(F)cc2)nn1 yielded an IC50 (second compound 0.0316 µM) of 0.0277 µM, an IC50 (second compound 0.1 µM) of 0.0319 µM and an IC50 (second compound 0.316 µM) of 0.0315 µM. It also gave an IC50 (second compound 1 µM) of 0.0252 µM, an IC50 (second compound 3.16 µM) of 0.0241 µM and an IC50 (second compound 10 µM) of 0.024 µM. The viability, T/C (second compound 0.0316 µM, first compound 0.00316 µM) was 111%, the viability, T/C (second compound 0.0316 µM, first compound 0.01 µM) was 197% and the viability, T/C [1] was 36.6%. It also gave a viability, T/C [2] of 11.9%, a viability, T/C [3] of 7.2% and a viability, T/C [4] of 6.13%. For the same compound, the viability, T/C (second compound 0.1 µM, first compound 0.00316 µM) was 106%, the viability, T/C (second compound 0.1 µM, first compound 0.01 µM) was 196% and the viability, T/C [5] was 50.3%. It also gave a viability, T/C [6] of 10.7%, a viability, T/C [7] of 6.14% and a viability, T/C [8] of 5.3%. The viability, T/C (second compound 0.316 µM, first compound 0.00316 µM) was 113%, the viability, T/C (second compound 0.316 µM, first compound 0.01 µM) was 176% and the viability, T/C [9] was 49.8%. For the same compound, the viability, T/C [10] was 11.1%, the viability, T/C [11] was 7.07% and the viability, T/C [12] was 6.94%. For the same compound, the viability, T/C (second compound 1 µM, first compound 0.00316 µM) was 105%, the viability, T/C (second compound 1 µM, first compound 0.01 µM) was 148% and the viability, T/C [13] was 31.3%. The viability, T/C [14] was 9.99%, the viability, T/C [15] was 7.86% and the viability, T/C [16] was 7.5%. For the same compound, the viability, T/C (second compound 3.16 µM, first compound 0.00316 µM) was 107%, the viability, T/C (second compound 3.16 µM, first compound 0.01 µM) was 178% and the viability, T/C [17] was 21.6%. The viability, T/C [18] was 15.9%, the viability, T/C [19] was 7.71% and the viability, T/C [20] was 6.25%. It also gave a viability, T/C (second compound 10 µM, first compound 0.00316 µM) of 100%, a viability, T/C (second compound 10 µM, first compound 0.01 µM) of 161% and a viability, T/C [21] of 24.6%. It also gave a viability, T/C [22] of 8%, a viability, T/C [23] of 9.72% and a viability, T/C [24] of 7.4%.
With `C=CC(=O)N1CCN(c2nc(=O)n(-c3c(C)ccnc3C(C)C)c3nc(-c4c(O)cccc4F)c(F)cc23)C(C)C1` (stereo unspecified) + Nc1ccc(C#CCN(C(=O)Cc2ncc(C(F)(F)F)cc2C(F)(F)F)c2ccc(F)cc2)nn1 the IC50 (second compound 0.0316 µM) was over 10 µM, the IC50 (second compound 0.1 µM) was over 10 µM and the IC50 (second compound 0.316 µM) was over 10 µM. It also gave an IC50 (second compound 1 µM) of over 10 µM, an IC50 (second compound 3.16 µM) of over 10 µM and an IC50 (second compound 10 µM) of over 10 µM. The viability, T/C [1] was 101%, the viability, T/C [2] was 116% and the viability, T/C [3] was 120%. For the same compound, the viability, T/C [4] was 105%, the viability, T/C [25] was 144% and the viability, T/C [26] was 214%. It also gave a viability, T/C [5] of 99%, a viability, T/C [6] of 137% and a viability, T/C [7] of 107%. For the same compound, the viability, T/C [8] was 121%, the viability, T/C [27] was 159% and the viability, T/C [28] was 235%. For the same compound, the viability, T/C [9] was 126%, the viability, T/C [10] was 129% and the viability, T/C [11] was 121%. The viability, T/C [12] was 122%, the viability, T/C [29] was 146% and the viability, T/C [30] was 176%. It also gave a viability, T/C [13] of 99.4%, a viability, T/C [14] of 113% and a viability, T/C [15] of 92.2%. For the same compound, the viability, T/C [16] was 158%, the viability, T/C [31] was 120% and the viability, T/C [32] was 173%. For the same compound, the viability, T/C [17] was 103%, the viability, T/C [18] was 121% and the viability, T/C [19] was 97.2%. The viability, T/C [20] was 129%, the viability, T/C [33] was 129% and the viability, T/C [34] was 175%. It also gave a viability, T/C [21] of 109%, a viability, T/C [22] of 108% and a viability, T/C [23] of 99.1%. It also gave a viability, T/C [24] of 117%, a viability, T/C [35] of 113% and a viability, T/C [36] of 124%.
Work on `O=c1[nH]cc(F)c(=O)[nH]1` + Cc1cccc(N(C)C(=O)C2C(O)CCN2c2nc(C)cc(C(F)(F)F)c2C#N)c1 yielded an IC50 (second compound 0.0316 µM) of 0.605 µM, an IC50 (second compound 0.1 µM) of 0.389 µM and an IC50 (second compound 0.316 µM) of 0.387 µM. It also gave an IC50 (second compound 1 µM) of 0.496 µM, an IC50 (second compound 3.16 µM) of 0.537 µM and an IC50 (second compound 10 µM) of 0.554 µM. For the same compound, the viability, T/C [1] was 133%, the viability, T/C [2] was 96.3% and the viability, T/C [3] was 67.1%. For the same compound, the viability, T/C [4] was 36.8%, the viability, T/C [25] was 27.6% and the viability, T/C [26] was 25.7%. The viability, T/C [5] was 109%, the viability, T/C [6] was 128% and the viability, T/C [7] was 54.8%. For the same compound, the viability, T/C [8] was 33.2%, the viability, T/C [27] was 26.3% and the viability, T/C [28] was 24.2%. The viability, T/C [9] was 115%, the viability, T/C [10] was 118% and the viability, T/C [11] was 54.6%. The viability, T/C [12] was 34.5%, the viability, T/C [29] was 27.4% and the viability, T/C [30] was 23.1%. For the same compound, the viability, T/C [13] was 112%, the viability, T/C [14] was 107% and the viability, T/C [15] was 61.1%. For the same compound, the viability, T/C [16] was 33.7%, the viability, T/C [31] was 26.6% and the viability, T/C [32] was 24.1%. The viability, T/C [17] was 109%, the viability, T/C [18] was 99.5% and the viability, T/C [19] was 62.6%. The viability, T/C [20] was 35.2%, the viability, T/C [33] was 29.1% and the viability, T/C [34] was 27%. It also gave a viability, T/C [21] of 109%, a viability, T/C [22] of 114% and a viability, T/C [23] of 65.2%. For the same compound, the viability, T/C [24] was 40.1%, the viability, T/C [35] was 32.6% and the viability, T/C [36] was 26.6%.
